The subject of data set [1] is Obese Zucker rats. Nature of the data set: In vivo assessment in obese Zucker rats: clinical chemistry (AP, BUN, CRT, AST, ALT). Conditions: obese Zucker rats; mean ± SE.
The subject of data set [2] is Obese Zucker rats. Nature of the data set: In vivo assessment in obese Zucker rats: vascular inflammation markers (MCP-1, CRP, RBP-4, leptin, ICAM, adiponectin). The following applies: obese Zucker rats, daily 400 μg Cr(III)/kg, 8 weeks, mean; for Adiponectin / CRP / MCP-1: plasma, ELISA.
Data set [3] relates to Obese Zucker rats. Nature of the data set: In vivo assessment in obese Zucker rats: key biological parameters (fasting glucose, HbA1c, vitamin C, GSH, RBC lipid peroxidation). The following applies: obese Zucker rats, daily 400 μg Cr(III)/kg, 8 weeks, mean; for RBC Lipid Peroxidase: malondialdehyde by thiobarbituric acid; for Fasting Glucose: fasted overnight.
Data set [4] deals with Obese Zucker rats. Nature of the data set: In vivo assessment in obese Zucker rats: blood lipid profile (total cholesterol, triglycerides, HDL). Conditions: daily 400 μg Cr(III)/kg, 8 weeks, mean.
In data set [5] the test system is Obese Zucker rats. Nature of the data set: In vivo assessment in obese Zucker rats: other vascular inflammation markers (cAMP, TNFα, IL-6, OxyDNA). Conditions: obese Zucker rats, daily 400 μg Cr(III)/kg, 8 weeks, mean ± SE; for OxyDNA: oxidative DNA damage.
The subject of data set [6] is Obese Zucker rats. Conditions: rat, in vivo.

Where two headings read alike, the source gives them in different places.

Take `CCC(=O)[O-].CCC(=O)[O-].CCC(=O)[O-].[Cr+3]` [CrProp, Chromium Propionate, reference compound]: in the data set with Obese Zucker rats [1], the “ALT (Alanine Aminotransferease)” value amounted to 207.00 u/L, the “AP (Alkaline phosphatase)” value was determined as 32.20 u/L, the “AST (Aspartate Aminotransferase)” value is listed as 347.25 u/L and the “Anion Gap” value turned out to be 29.20. In addition, in the data set with Obese Zucker rats [1], the “BUN (Blood Urea Nitrogen)” value worked out at 22.25 mg/dL, the “BUN/CRT Ratio” value came out at 53.40, the “CRT (Creatinine)” value is on record as 0.40 mg/dL and the “Total Bilirubin” value is reported as 0.10 mg/dL. In the data set with Obese Zucker rats [2], the Leptin came out at 393.47 pg/mL, the RBP-4 was found to be 49851.91 ng/mL, the Adiponectin amounted to 12903.52 ng/mL and the CRP turned out to be 820.04 ng/mL. In addition, in the data set on Obese Zucker rats [2], the MCP-1 is 4497.83 pg/mL. In the data set with Obese Zucker rats [3], the “RBC Lipid Peroxidase” value stood at 2.18 nmol/mL, the “Fasting Glucose” value stood at 549.49 mg/dL, the GSH was determined as 4.76 µmol/g and the HbA1c is 16.90%. In the data set with Obese Zucker rats [4], the HDL was 64.19 mg/dL, the “Total Chol/HDL” value was 2.68 ratio, the “Total Cholesterol” value turned out to be 170.56 mg/dL and the Triglyceride is listed as 456.14 mg/dL. In the data set with Obese Zucker rats [5], this molecule yielded an IL-6 of 90.50 ± 14.02 pg/mL, a TNFα of 41.14 ± 10.06 pg/mL, a cAMP of 26.95 ± 1.13 pmol/mL and an OxyDNA of 47.19 ± 5.07 ng/mL.
As to Chromium Cinnamate [CrCin], in the data set with Obese Zucker rats [2], the Leptin is listed as 379.18 pg/mL, the RBP-4 came out at 47905.13 ng/mL, the Adiponectin came to 11507.60 ng/mL and the CRP came out at 587.35 ng/mL. Further, the MCP-1 in the data set with Obese Zucker rats [2] is recorded as 2428.69 pg/mL. Further, in the data set with Obese Zucker rats [3], the “RBC Lipid Peroxidase” value amounted to 3.12 nmol/mL, the “Fasting Glucose” value is 557.37 mg/dL, the GSH turned out to be 5.00 µmol/g and the HbA1c turned out to be 15.61%. For the same molecule, in the data set with Obese Zucker rats [4], the HDL came to 65.44 mg/dL, the “Total Chol/HDL” value was found to be 2.94 ratio, the “Total Cholesterol” value worked out at 191.11 mg/dL and the Triglyceride is 507.35 mg/dL. Moreover, in the data set with Obese Zucker rats [6], the “ALT (Alanine Aminotransferease)” value was found to be 158.71 u/L, the “AP (Alkaline phosphatase)” value came to 30.71 u/L, the “AST (Aspartate Aminotransferase)” value is given as 230.14 u/L and the “Anion Gap” value was 29.86. For the same molecule, in the data set with Obese Zucker rats [6], the “BUN (Blood Urea Nitrogen)” value is recorded as 21.43 mg/dL, the “BUN/CRT Ratio” value is 51.86, the “CRT (Creatinine)” value turned out to be 0.41 mg/dL and the “Total Bilirubin” value turned out to be 0.10 mg/dL. In the data set on Obese Zucker rats [5], this molecule gave an IL-6 of 92.94 ± 13.21 pg/mL, a TNFα of 8.62 ± 4.90 pg/mL, a cAMP of 29.24 ± 0.61 pmol/mL and an OxyDNA of 48.71 ± 1.25 ng/mL.
Consider “Chromium Glucodinicotinate [Cr(nic)2Gluc]”, for which, in the data set with Obese Zucker rats [1], the “ALT (Alanine Aminotransferease)” value worked out at 138.00 u/L, the “AP (Alkaline phosphatase)” value is given as 27.00 u/L, the “AST (Aspartate Aminotransferase)” value was 238.67 u/L and the “Anion Gap” value turned out to be 29.00. In addition, in the data set on Obese Zucker rats [1], the “BUN (Blood Urea Nitrogen)” value was found to be 21.33 mg/dL, the “CRT (Creatinine)” value was 0.40 mg/dL and the “Total Bilirubin” value is on record as 0.10 mg/dL. In the data set on Obese Zucker rats [2], this molecule had a Leptin of 388.37 pg/mL, an RBP-4 of 48851.14 ng/mL, an Adiponectin of 11448.39 ng/mL and a CRP of 530.74 ng/mL. The MCP-1 with Obese Zucker rats [2] stood at 1977.46 pg/mL. In the data set on Obese Zucker rats [3], the “RBC Lipid Peroxidase” value turned out to be 2.00 nmol/mL, the “Fasting Glucose” value is recorded as 474.38 mg/dL, the GSH was determined as 4.62 µmol/g and the HbA1c was determined as 15.21%. In the data set with Obese Zucker rats [4], the HDL came to 65.71 mg/dL, the “Total Chol/HDL” value is on record as 3.06 ratio, the “Total Cholesterol” value is 197.33 mg/dL and the Triglyceride worked out at 534.43 mg/dL. For the same molecule, the “BUN/CRT Ratio” value with Obese Zucker rats [6] is reported as 53.67. Also, in the data set on Obese Zucker rats [5], the IL-6 turned out to be 81.59 ± 5.21 pg/mL, the TNFα stood at 29.40 ± 8.87 pg/mL, the cAMP is reported as 22.25 ± 1.58 pmol/mL and the OxyDNA is given as 45.10 ± 3.76 ng/mL.
Consider “Chromium Picolinate + Biotin [CrP + Biotin]”, for which, in the data set on Obese Zucker rats [6], the “ALT (Alanine Aminotransferease)” value is listed as 100.71 u/L, the “AP (Alkaline phosphatase)” value amounted to 64.00 u/L, the “AST (Aspartate Aminotransferase)” value turned out to be 160.29 u/L and the “Anion Gap” value is reported as 25.86. Moreover, in the data set with Obese Zucker rats [6], the “BUN (Blood Urea Nitrogen)” value was determined as 19.14 mg/dL, the “BUN/CRT Ratio” value came out at 46.50, the “CRT (Creatinine)” value stood at 0.41 mg/dL and the “Total Bilirubin” value turned out to be 0.10 mg/dL.
Consider “Chromium Triphenylalanine [Cr(Phe)3, reference compound]”, for which, in the data set with Obese Zucker rats [1], the “ALT (Alanine Aminotransferease)” value was found to be 186.29 u/L, the “AP (Alkaline phosphatase)” value was determined as 30.00 u/L, the “AST (Aspartate Aminotransferase)” value is on record as 276.43 u/L and the “Anion Gap” value came to 29.00. In the data set with Obese Zucker rats [1], the “BUN (Blood Urea Nitrogen)” value amounted to 20.71 mg/dL, the “BUN/CRT Ratio” value came out at 52.14, the “CRT (Creatinine)” value stood at 0.40 mg/dL and the “Total Bilirubin” value stood at 0.10 mg/dL. In the data set with Obese Zucker rats [2], this molecule showed a Leptin of 387.92 pg/mL, an RBP-4 of 48555.98 ng/mL, an Adiponectin of 11243.47 ng/mL and a CRP of 533.12 ng/mL. For the same molecule, in the data set on Obese Zucker rats [2], the MCP-1 came to 2064.89 pg/mL. Further, in the data set with Obese Zucker rats [3], the “RBC Lipid Peroxidase” value is recorded as 2.01 nmol/mL, the “Fasting Glucose” value stood at 549.70 mg/dL, the GSH was 4.50 µmol/g and the HbA1c turned out to be 15.04%. Moreover, in the data set with Obese Zucker rats [4], the HDL came to 60.82 mg/dL, the “Total Chol/HDL” value amounted to 2.84 ratio, the “Total Cholesterol” value was determined as 169.68 mg/dL and the Triglyceride turned out to be 467.04 mg/dL. Besides, in the data set with Obese Zucker rats [5], the IL-6 is given as 89.82 ± 8.55 pg/mL, the TNFα is 15.92 ± 7.76 pg/mL, the cAMP is given as 29.62 ± 1.01 pmol/mL and the OxyDNA worked out at 53.11 ± 4.76 ng/mL.
Turning to Chromium Tryptophanate [CrTrp], in the data set with Obese Zucker rats [1], the “ALT (Alanine Aminotransferease)” value is recorded as 124.29 u/L, the “AP (Alkaline phosphatase)” value came to 30.00 u/L, the “AST (Aspartate Aminotransferase)” value worked out at 237.43 u/L and the “Anion Gap” value is 30.14. In addition, in the data set with Obese Zucker rats [1], the “BUN (Blood Urea Nitrogen)” value turned out to be 17.43 mg/dL, the “BUN/CRT Ratio” value turned out to be 45.86, the “CRT (Creatinine)” value came out at 0.39 mg/dL and the “Total Bilirubin” value is on record as 0.10 mg/dL. In the data set with Obese Zucker rats [2], this molecule had a Leptin of 601.72 pg/mL, an RBP-4 of 60593.24 ng/mL, an Adiponectin of 11122.93 ng/mL and a CRP of 609.82 ng/mL. The molecule also gave an MCP-1 with Obese Zucker rats [2] of 2578.59 pg/mL. In the data set with Obese Zucker rats [3], the “RBC Lipid Peroxidase” value was found to be 1.78 nmol/mL, the “Fasting Glucose” value came to 402.77 mg/dL, the GSH amounted to 4.54 µmol/g and the HbA1c is listed as 14.16%. Further, in the data set with Obese Zucker rats [4], the HDL worked out at 60.54 mg/dL, the “Total Chol/HDL” value worked out at 3.46 ratio, the “Total Cholesterol” value worked out at 208.09 mg/dL and the Triglyceride is reported as 921.22 mg/dL. For the same molecule, in the data set on Obese Zucker rats [5], the IL-6 is 86.62 ± 6.81 pg/mL, the TNFα came out at 36.61 ± 14.89 pg/mL, the cAMP came to 20.03 ± 0.96 pmol/mL and the OxyDNA was found to be 45.14 ± 2.77 ng/mL.
In the case of “Chromium tris(5-hydroxytryptophan) [Cr(5HTP)3]”, in the data set on Obese Zucker rats [1], the “ALT (Alanine Aminotransferease)” value is given as 167.00 u/L, the “AP (Alkaline phosphatase)” value worked out at 25.00 u/L, the “AST (Aspartate Aminotransferase)” value is 267.43 u/L and the “Anion Gap” value came out at 29.43. Moreover, in the data set with Obese Zucker rats [1], the “BUN (Blood Urea Nitrogen)” value came to 22.86 mg/dL, the “BUN/CRT Ratio” value is given as 57.29, the “CRT (Creatinine)” value is given as 0.40 mg/dL and the “Total Bilirubin” value is recorded as 0.10 mg/dL. In the data set on Obese Zucker rats [2], the Leptin is listed as 359.61 pg/mL, the RBP-4 is given as 44517.99 ng/mL, the Adiponectin was 11831.51 ng/mL and the CRP amounted to 589.26 ng/mL. Besides, in the data set on Obese Zucker rats [2], the MCP-1 came to 1932.18 pg/mL. For the same molecule, in the data set on Obese Zucker rats [3], the “RBC Lipid Peroxidase” value stood at 1.93 nmol/mL, the “Fasting Glucose” value is listed as 585.25 mg/dL, the GSH was 5.04 µmol/g and the HbA1c was 16.15%. For the same molecule, in the data set on Obese Zucker rats [4], the HDL came to 68.84 mg/dL, the “Total Chol/HDL” value turned out to be 2.72 ratio, the “Total Cholesterol” value is on record as 184.77 mg/dL and the Triglyceride was found to be 452.96 mg/dL. For the same molecule, in the data set on Obese Zucker rats [5], the IL-6 turned out to be 94.32 ± 11.71 pg/mL, the TNFα worked out at 13.35 ± 8.28 pg/mL, the cAMP is listed as 25.64 ± 2.39 pmol/mL and the OxyDNA came to 45.89 ± 4.53 ng/mL.

The values are drawn from patent US9700546B2, “Trivalent chromium compounds, compositions and methods of use” (INTERHEALTH NUTRACEUTICALS, INC., priority 2006, dated 2017).
